The source of these data is patent US5679680A, “α-substituted hydrazides having calpain inhibitory activity” (Warner-Lambert Company, priority 1995, dated 1997).

Square brackets hold non-standard residues; d marks the D form. Ends that are not written are not given here. Peptide text beside a SMILES is read from it. Nle = CCCC[C@H](N)C(=O)O

One test has as its system ischemic neocortex. Particulars: applied directly to the surfaces of ischemic neocortex; cited from earlier work.
A further test deals with T1, Human Calpain I (Homo sapiens, UniProt P07384).
T1 construct: Calpain I was purified from human erythrocytes; from tissue; host or cells: human erythrocytes
T1 sequence (P07384 1-714): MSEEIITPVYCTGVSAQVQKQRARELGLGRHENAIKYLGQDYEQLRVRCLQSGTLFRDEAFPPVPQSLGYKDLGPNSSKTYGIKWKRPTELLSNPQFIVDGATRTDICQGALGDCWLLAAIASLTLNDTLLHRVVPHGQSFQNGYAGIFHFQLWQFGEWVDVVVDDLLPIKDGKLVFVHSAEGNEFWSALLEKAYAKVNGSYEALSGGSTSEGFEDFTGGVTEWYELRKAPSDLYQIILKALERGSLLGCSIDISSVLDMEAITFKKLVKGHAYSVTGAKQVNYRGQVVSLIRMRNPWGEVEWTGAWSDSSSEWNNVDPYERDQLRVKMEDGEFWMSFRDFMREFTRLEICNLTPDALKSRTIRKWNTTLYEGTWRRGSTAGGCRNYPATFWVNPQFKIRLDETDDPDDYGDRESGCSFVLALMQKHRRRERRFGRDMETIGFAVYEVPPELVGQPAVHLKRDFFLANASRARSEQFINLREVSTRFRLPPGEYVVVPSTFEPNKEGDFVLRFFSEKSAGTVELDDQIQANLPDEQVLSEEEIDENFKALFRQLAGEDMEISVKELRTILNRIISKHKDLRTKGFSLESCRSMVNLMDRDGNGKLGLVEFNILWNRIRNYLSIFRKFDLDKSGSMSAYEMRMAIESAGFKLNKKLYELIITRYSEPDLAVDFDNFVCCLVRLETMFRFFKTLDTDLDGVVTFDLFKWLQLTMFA
T1 sequence (P04632 1-268 partner): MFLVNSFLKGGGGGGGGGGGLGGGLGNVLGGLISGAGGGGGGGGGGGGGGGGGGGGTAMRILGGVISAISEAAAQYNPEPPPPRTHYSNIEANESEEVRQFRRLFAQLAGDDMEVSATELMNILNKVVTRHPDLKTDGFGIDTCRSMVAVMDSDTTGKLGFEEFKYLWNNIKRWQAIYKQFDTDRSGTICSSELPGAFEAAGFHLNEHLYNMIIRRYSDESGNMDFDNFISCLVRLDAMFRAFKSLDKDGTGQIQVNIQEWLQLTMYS
Briefly: Calpain I activity, casein substrate, Coomassie microplate assay. In kind it is biochemical. Particulars: for IC50: casein 0.5 mg/mL, pH 7.4, 25° C., 60 minutes (Table I). The protocol: (§1) Assay of calpain activity: Calpain I was purified from human erythrocytes as described by Wang K K W, Roufogalis B D, and Villalobo A, Arch Biochem Biophys 1988;267: 317-327. Calpain activity was assayed in a 96-well microplate format (Buroker-Kilgore M and Wang K K W, Anal Bio Chem 1993;208: 387-392). In 250 μL of reaction mixture, substrate casein (0.5 mg/mL) was incubated with 0.01 unit (80-120 ng) calpain I, 20 mM dithiothreitol (DTT), 50 mM Tris-HCl (pH 7.4 at 25° C.) and 4 mM CaCl2 at 25° C. for 60 minutes. Two 100-μL aliquots were taken for Coomassie blue G250 binding analysis to quantify the remaining casein.
(§2) Compound concentrations that cause 50% inhibition (IC50) are as shown (Table I). The second rate of inactivation of calpain I for 2 compounds are also shown.
(§3) Selectivity of α-substituted Hydrazides: Calpain I and II were assayed as described in Example 1. One to 2 ng papain (papaya latex, Sigma, P3125), 1.25 μg trypsin (bovine pancreas, Sigma, T8003), 5 μg thermolysin (Bacillus thermoproteolyticus, Sigma, P1512) were assayed using 0.5 mg/mL casein as substrate in the microplate format (250 μL reaction volume), essentially a described by Buroker-Kilgore, M. and Wang K K W, Anal Biochem 1993;208: 387-392. Cathepsin B (0.002 unit, bovine spleen) was assayed with 50 mM MES (pH 5.5), 100 μM carbobenzoxy-Arg-Arg-4-methoxy-beta-naphthlamide (Cbz-Arg-Arg-MNA), inhibitor, and 2 mM DTT in 200 μL for 60 minutes at room temperature. Fifty-microliter aliquots were transferred to a fluorescence-compatible plate and then read with a Perkin-Elmer fluorometer LS-50B (excitation 340 nm and emission 425 nm). Calcineurin (bovine brain, Sigma) (5 μg, 0.8 unit) was assayed with 10 mM p-nitrophenyl phosphate in 1 mM DTT, 1 mM CaCl2, 1 mM MnCl2, […] calmodulin (CaM, if added), and 50 mM Tris-HCl (pH 7.4) at 25° C. for 60 minutes or more. Production of p-nitrophenol was monitored at 405 nm. Inhibition of these proteases are presented as IC50.

For a further test, the target named is T2, Human Calpain II (Homo sapiens, UniProt P17655).
T2 sequence (P17655 1-700): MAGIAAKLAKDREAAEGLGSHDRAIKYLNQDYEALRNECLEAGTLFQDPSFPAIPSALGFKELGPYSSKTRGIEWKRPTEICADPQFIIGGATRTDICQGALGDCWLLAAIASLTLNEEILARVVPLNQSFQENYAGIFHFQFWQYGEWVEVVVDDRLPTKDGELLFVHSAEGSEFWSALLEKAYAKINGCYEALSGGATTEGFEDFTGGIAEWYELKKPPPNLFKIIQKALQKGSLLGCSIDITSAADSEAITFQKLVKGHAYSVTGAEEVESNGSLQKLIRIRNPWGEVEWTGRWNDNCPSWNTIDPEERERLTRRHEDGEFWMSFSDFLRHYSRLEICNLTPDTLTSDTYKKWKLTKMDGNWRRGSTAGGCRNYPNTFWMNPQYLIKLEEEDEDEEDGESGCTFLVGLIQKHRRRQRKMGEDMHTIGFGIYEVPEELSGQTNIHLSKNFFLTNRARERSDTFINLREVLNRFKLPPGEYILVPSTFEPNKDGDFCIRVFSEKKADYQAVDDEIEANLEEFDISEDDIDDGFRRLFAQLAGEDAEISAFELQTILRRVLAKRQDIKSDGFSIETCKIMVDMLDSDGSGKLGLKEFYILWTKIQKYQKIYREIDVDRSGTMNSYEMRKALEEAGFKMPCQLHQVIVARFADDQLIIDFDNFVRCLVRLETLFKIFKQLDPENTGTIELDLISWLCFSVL
T2 sequence (P04632 1-268 partner): T1 sequence (P04632 1-268 partner)
Briefly: Calpain II activity, casein substrate, Coomassie microplate assay. In kind it is biochemical. Particulars: casein 0.5 mg/mL (Table I). The protocol:
as §1, §2, §3

For test [1], the system named is Spectrin Breakdown in Human Leukemic Molt-4 cells. Briefly: Cell-based calpain assay: spectrin breakdown in Molt-4 cells treated with calcium ionophore A23187. Particulars: 1 hour preincubation, 15 μM A23187, 90 minutes, read-out: IC50 for inhibition of spectrin breakdown (145 kD fragment formation). The method, then:
Calpain inhibitor was added to the wells if desired and preincubated for 1 hour. […] The cells were then lysed with 2% (w/v) SDS, 5 mM EGTA, 5 mM EDTA, 150 mM NaCl, 0.5 mM PMSF, 10 μg/mL AEBSF, 5 μg/mL leupeptin, 10 μg/mL pepstatin, 10 μg/mL TLCK, 10 μg/mL TPCK, and 20 mM Tris-HCl (pH 7.4) at room temperature for 5 to 10 minutes. One hundred microliters of 100% (w/v) TCA was added and total protein precipitate was collected by microcentrifugation. The final pellets were neutralized with Tris base. Protein samples (50 μg) were run on SDS-PAGE with the Tris-glycine running buffer system and transferred onto a PVDF membrane. The blots were probed with an anti-spectrin (nonerythroid) antibody and a second antibody with alkaline phosphatase conjugate. The blots were developed with nitro blue tetrazolium and 5-bromo-4-chloro-3-indolyl-phosphate.

The next test concerns cataract. Particulars: whole animal; cited from earlier work.
Test [2] has as its system acute myocardiac infraction in dogs. Particulars: coronary reperfusion after acute myocardiac infraction; cited from earlier work.
Another test deals with restenosis. Particulars: in vivo; cited from earlier work.
The next test has as its system aggregin. As to conditions: cited from earlier work.
The next test concerns platelet. As to conditions: cited from earlier work.

Take `CCNC(=O)C(=O)C(CC)NC(=O)C(CC(C)C)NC(=O)OCc1ccccc1` (stereo not drawn) [AK275]: the “Size of the expected infarct” value with ischemic neocortex was “dramatically and unequivocally reduce the size of the expected infarct”.
Consider `O=C(CBr)NN=c1[nH]c2ccccc2n(-c2ccccc2)c1=O` [Example 4, 2-Bromo-acetic acid (3-oxo-4-phenyl-3,4-dihydro-1H-quinoxalin-2-ylidene)-hydrazide], for which the half-maximal inhibitory concentration (IC50) against Human Calpain I was determined as 0.697 µM; against Human Calpain II, 0.574 µM; in test [1], 25 µM.
`O=C(CCl)NN=c1[nH]c2ccccc2n(-c2ccc(Cl)cc2)c1=O` [Example 9, 2-Chloro-acetic acid [4-(4-chloro-phenyl)-3-oxo-3,4-dihydro-1H-quinoxalin-2-ylidene]-hydrazide]: at Human Calpain I, the “Ki/[I] Calpain I (second rate of inactivation)” value came out at 63.7 M⁻¹ s⁻¹. Also, the half-inhibitory concentration (IC50) on Human Calpain I turned out to be 0.486 µM; against Human Calpain II, 0.158 µM; in [1] it was 15 µM.
Turning to `Cn1c(=O)c(=NNC(=O)CCl)[nH]c2ccccc21` [Example 14, 2-Chloro-acetic acid (4-methyl-3-oxo-3,4-dihydro-1H-quinoxalin-3-ylidene)-hydrazide], the IC50 against Human Calpain I is 8.28 µM; against Human Calpain II it was 10.8 µM.
Turning to `CC(C)C[C@H](NC(=O)[C@H]1O[C@@H]1C(=O)O)C(=O)NCCCCN=C(N)N` [Example E64], in the test on cataract, the “Rate of cataract formation” value is “reduce the rate of cataract formation”.
For `CC(C)CCNC(=O)[C@H](CC(C)C)NC(=O)[C@H]1O[C@@H]1C(=O)O` [Example E64c], the Size of infarct result in [2] is on record as “significantly reduce the size of infract”.
`CCCC[C@@H](C=O)NC(=O)[C@H](CC(C)C)NC(=O)[C@H](CC(C)C)NC(C)=O` [calpain inhibitor I] (Ac-Leu-Leu-[Nle]-aldehyde): in the test with restenosis, the Restenosis result is “can inhibit restenosis”.
As to “Phe-Gln-Val-Val-Cys(3-nitro-2-thiopyridine)-Gly-NH2 (FQVVC(3‑nitro‑2‑thiopyridine)G-NH2)”, in the test on aggregin, the Aggregin breakdown entry is “blocked aggregin breakdown”. In addition, in the test with platelet, the Platelet aggregation entry is “blocked aggregin breakdown and platelet aggregation”.

For orientation: IC50 means the midpoint of a concentration-inhibition curve.
